Data: BindingDB's records for doi:10.1016/s0960-894x(01)00185-8 (Dupont Pharmaceuticals, 2001)
pIC50: −log10 of the molar value.

Assays:
[1] = target: Cyclin-dependent kinase 2/G1/S-specific cyclin-E1 (Homo sapiens, UniProt P24941); assay: Kinase Inhibition Assay
Method: (§1) The enzyme was assayed with substrate GST-Rb in the presence of 50 mM ATP/[gamma-32P] ATP, and capturing the 32-P labeled reaction products on GSH-Sepharose beads. […] Use of 32P-labeled ATP allows this transfer to be monitored by scintillation counting.

[2] = target: Cyclin-dependent kinase 4/G1/S-specific cyclin-D1 (Homo sapiens, UniProt P11802); assay: Kinase Inhibition Assay
Chain of Cyclin-dependent kinase 4/G1/S-specific cyclin-D1 (P11802 whole entry): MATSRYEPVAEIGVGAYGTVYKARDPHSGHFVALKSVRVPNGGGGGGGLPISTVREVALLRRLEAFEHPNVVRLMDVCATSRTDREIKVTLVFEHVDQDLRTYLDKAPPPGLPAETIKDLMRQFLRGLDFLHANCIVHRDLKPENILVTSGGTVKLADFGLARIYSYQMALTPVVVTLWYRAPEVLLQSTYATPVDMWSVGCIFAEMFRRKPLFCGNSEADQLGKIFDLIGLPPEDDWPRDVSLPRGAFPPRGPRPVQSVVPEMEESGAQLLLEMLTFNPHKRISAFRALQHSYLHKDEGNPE
Chain of Cyclin-dependent kinase 4/G1/S-specific cyclin-D1 (P24385 whole entry, further chain): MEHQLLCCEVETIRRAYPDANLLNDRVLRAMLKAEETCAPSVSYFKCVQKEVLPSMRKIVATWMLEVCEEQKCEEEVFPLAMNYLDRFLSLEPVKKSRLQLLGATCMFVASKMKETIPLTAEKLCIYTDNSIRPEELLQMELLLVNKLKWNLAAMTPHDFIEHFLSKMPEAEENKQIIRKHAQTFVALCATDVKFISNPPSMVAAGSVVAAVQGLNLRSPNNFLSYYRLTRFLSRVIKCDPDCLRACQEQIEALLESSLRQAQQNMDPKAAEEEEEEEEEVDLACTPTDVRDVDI
Method: as §1

- pIC50 [1]: 5.92
- pIC50 [2]: 5.08
Structure (SMILES): CC(C)(C)Nc1nc(C(F)(F)F)nc2ccc(-c3cccc(-c4cccnc4)c3)cc12 [N-tert-butyl-6-[3-(pyridin-3-yl)phenyl]-2-(trifluoromethyl)quinazolin-4-amine]
